# According to patent publication US20230000089A1, “COMPOSITION ENRICHED IN POLYPHENOLS AND FLAVONOIDS FOR USE AS BIOSTIMULANT AND ANTIMICROBIAL FOR AGRICULTURE APPLICATIONS” (BOTANITEC SPA, priority 2019, published 2023):
# Assays:
# Experiment in all cases: Inhibition halo
# Assay type in all cases: cell-based
# Settings in all cases: positive control antibiotic 0.1 g/L
# Salmonella sp = system: Salmonella sp
# Procedure: (§1) Routine experiments were performed comparing the inhibition halos, using an antibiotic as a positive control: carbamycin 0.1 g/L for Bacillus sp; chloramphenicol 0.1 g/L for Enterobacter aerogenes; and, ampicillin 0.1 g/L. for Salmonella sp, Staphylococcus aureus and Escherichia coli as shown in Table 7 below.
# Staphylococcus aureus = system: Staphylococcus aureus
# Procedure: as §1
# Escherichia coli = system: Escherichia coli
# Procedure: FIG. 7. Inhibitory effect of the composition of the invention on Escherichia coli.
# as §1
# Enterobacter aerogenes = system: Enterobacter aerogenes
# Procedure: as §1
# Bacillus sp = system: Bacillus sp
# Procedure: as §1
compound,measurement,setting,value
CC1(C)S[C@@H]2[C@H](NC(=O)[C@H](N)c3ccccc3)C(=O)N2[C@H]1C(=O)O [ampicillin],Inhibition halo,Salmonella sp,28 mm
same,Inhibition halo,Staphylococcus aureus,25 mm
same,Inhibition halo,Escherichia coli,52 mm
O=C(N[C@H](CO)[C@H](O)c1ccc([N+](=O)[O-])cc1)C(Cl)Cl [chloramphenicol],Inhibition halo,Enterobacter aerogenes,50 mm
carbamycin,Inhibition halo,Bacillus sp,31 mm
